The source of these data is PubChem BioAssay AID602215 (Sanford-Burnham Center for Chemical Genomics, 2012).

pIC50: −log10 of the molar value. The source made the active and inactive calls.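 Rule for the calls: active = IC50 of 20 µM or lower; inactive = the rest.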

The test system of the test is HL-1 cardiomyocytes, H2O2 injury, ATP luminescence, 2 h. The experiment in a line: protection of HL-1 cardiomyocytes from peroxide injury, dose response, cell-based, ATP luminescence (AID 602215).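 Note: potency is for protection so actives raise ATP signal against peroxide damage.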
As usually defined, the IC50 is the concentration at which inhibition is half-maximal. For the compound `CCOc1ccc(-n2cc(-c3ccccc3)c3c(N4CCOCC4)ncnc32)cc1`, the IC50 was 24 µM (inactive). Same read-out and setting: the same measure for `O=C(Nc1ccccc1)c1nc[nH]c1C(=O)NCCCCNC(=O)c1[nH]cnc1C(=O)Nc1ccccc1`: 39.6 µM (inactive). For orientation: pIC50 means the IC50 on a negative log10 scale, so that one unit is a factor of ten. With `COc1ccc(-c2nn(-c3ccccc3)cc2C(=O)Nc2nccs2)cc1`, the pIC50 is 4.86. As for `Nc1c(C(=O)N/N=C/c2cccnc2)oc2nc(-c3ccco3)cc(-c3ccco3)c12`, the IC50 is > 79 µM (inactive). The same measure, in the same setting: the figure for `COc1cc(C(=O)N/N=C/c2sc(N3CCOCC3)nc2-c2ccccc2)cc(OC)c1OC` is 48.4 µM (inactive).

For the compound `COc1ccc(-c2csc(NC(=O)c3ccc(OCC(=O)N4CCOCC4)c(OC)c3)n2)cc1OC`, the pIC50 is 4.91.

Consider `COc1cc(C(=O)N/N=C/c2ccc(OC(=O)c3cccc(C)c3)c(OC)c2)ccc1O`, for which the IC50 is 31.2 µM (inactive). In the case of `Cc1ccc(-n2cc(-c3ccccc3)c3c(N4CCOCC4)ncnc32)cc1`, the IC50 was > 79 µM (inactive). In the case of `COc1cc(NC(=O)c2cc3nc(-c4ccccc4)cc(-c4ccccc4)n3n2)cc(OC)c1OC`, the pIC50 was 5.06. On to `COc1ccccc1NC(=O)c1cc(-c2cc(OC)c(OC)c(OC)c2)nc2ccccc12`, for which the negative-log IC50 (pIC50) is 4.87.

As for `CC(=O)Nc1ccc(C(=O)N/N=C/c2ccccc2OC(=O)c2ccc(Cl)cc2)cc1`, the IC50 was > 79 µM (inactive). On the same count and under the same terms, the same measure for `CC(=O)c1cccc(Nc2nc3ccccc3n3cnnc23)c1`: > 79 µM (inactive). The same measure, in the same setting: the figure for `O=C(COC(=O)c1c2c(nc3ccccc13)/C(=C/c1cccc([N+](=O)[O-])c1)CCC2)NC1CCS(=O)(=O)C1` (stereo not drawn) is > 79 µM (inactive). Regarding `COc1ccc(-c2csc(NC(=O)CCCc3nc4ccccc4c(=O)[nH]3)n2)cc1OC`, the pIC50 is 4.92. Take `CC(=O)Nc1ccc(Nc2nc(-c3sc(NC(C)=O)nc3C)cs2)cc1`: the IC50 is 20.1 µM (inactive).

Take `O=C1OCCN1C(=O)[C@H]1[C@H](c2ccc([N+](=O)[O-])cc2)C(c2ccc(F)cc2)=NN1c1ccc(Br)cc1`: the IC50 was > 79 µM (inactive). The same measure, in the same setting: the same measure for `COc1ccc(CCNc2nc(-c3cccnc3)nc3ccccc23)cc1OC`: > 79 µM (inactive); for `CC(OC(=O)c1cc(-c2cccnc2)nc2ccccc12)C(=O)Nc1ccc2ccccc2c1` (stereo not drawn): > 79 µM (inactive); for `CCOC(=O)c1c2c3c(cccc3n(C)c1=O)C(=O)c1ccccc1-2`: > 79 µM (inactive). Still for that read-out and setting: the same measure for `COc1ccc2[nH]c(=O)c(CN(Cc3cccnc3)S(=O)(=O)c3ccccc3F)cc2c1`: > 79 µM (inactive).

`COc1ccc(-c2cc(C(=O)N(C)Cc3ccc(OC)c(OC)c3OC)c3ccccc3n2)cc1OC`: the pIC50 is 4.94.

For `CC(C)OCCCNC(=O)CCC(=O)NNc1nc2ccccc2c2nc(-c3ccccc3)nn12`, the IC50 is > 79 µM (inactive). For the compound `NC(=O)c1nsc(C(=O)N(c2ccccc2F)C(C(=O)NCc2ccccc2)c2ccc(O)cc2)c1N` (stereo not drawn), the pIC50 is 4.80. Consider `COC(=O)c1cc2c(-c3ccccc3)cc3ccccn3c-2c1C(=O)OC`, for which the IC50 was > 79 µM (inactive). With `Brc1cc2c(cc1/C=N/Nc1nc(N3CCCC3)nc(N3CCOCC3)n1)OCO2`, the pIC50 is 4.96. The same measure, in the same setting: the figure for `COc1cc(-c2cc(C(=O)Nc3cccc(C(C)=O)c3)c3ccccc3n2)cc(OC)c1OC` is 5.40.

`COc1ccccc1CN(C(=O)CNC(=O)c1ccco1)C(C(=O)NCC1CCCO1)c1ccccc1` (stereo not drawn): the IC50 was > 79 µM (inactive). Same read-out and setting: the figure for `COc1ccc(C(C(=O)NC2CCCC2)N(C(=O)c2snc(C(N)=O)c2N)c2cccc(O)c2)cc1` (stereo not drawn) is 23.9 µM (inactive). The same measure, in the same setting: the same measure for `CC(C)(C)OC(=O)C[C@@H]1C/C=C\C[C@@H](CC(=O)N[C@@H](CO)Cc2ccccc2)C(=O)NC[C@@H](c2ccccc2)OC1=O`: > 79 µM (inactive).

For the compound `COc1ccc(-c2cc(C(=O)Nc3ccccc3N3CCOCC3)c3ccccc3n2)cc1OC`, the pIC50 was 5.36. In the case of `Fc1ccc(-n2cc(-c3ccccc3)c3c(N4CCOCC4)ncnc32)cc1`, the IC50 was > 79 µM (inactive).

Regarding `CCc1nc2ccc(C(=O)Nc3cc(-c4ccccc4)ccc3OC)cn2c1N(C)Cc1nccs1`, the IC50 was > 79 µM (inactive). For the compound `CC(C)c1ccccc1NC(=O)COC(=O)c1c2c(nc3ccccc13)CCN(Cc1ccccc1)C2`, the IC50 was 41.4 µM (inactive). On the same count and under the same terms, the figure for `COc1ccc(-c2cc(NC(C)=O)c3ncc(-c4cccc(C(C)=O)c4)n3c2)cc1OC` is > 79 µM (inactive). In the case of `COc1cc(-c2cnc3c(NC=O)cc(-c4cccnc4)cn23)cc(OC)c1OC`, the negative-log IC50 (pIC50) is 4.77. Take `O=C(c1ccc(-c2nc3ccccc3s2)o1)N1CCN(c2ccccc2O)CC1`: the IC50 was > 79 µM (inactive). For the compound `O=C(NCC(=O)N(Cc1cccs1)C(C(=O)NC1CCCCC1)c1ccco1)c1ccco1` (stereo not drawn), the IC50 is > 79 µM (inactive). Take `N#Cc1c(-c2ccco2)cc(-c2cccnc2)nc1N`: the IC50 was 41.2 µM (inactive).

On to `COc1ccc(-c2ccc3c(c2)S(=O)(=O)c2cccc(C(=O)N4CCN(c5c(Cl)cncc5Cl)CC4)c2C3=O)cc1OC`, for which the IC50 was > 79 µM (inactive).

For the compound `CCOC(=O)C1CCN(c2cc3c(cc2NC(=O)c2ccc(OC)c(OC)c2)n(C)c(=O)n3C)CC1`, the IC50 was > 79 µM (inactive).

In the case of `Cc1cccc(NC(=O)c2nc[nH]c2C(=O)NCCCCNC(=O)c2[nH]cnc2C(=O)Nc2cccc(C)c2)c1`, the IC50 was > 79 µM (inactive).

In the case of `COc1ccccc1N1CCN(C(=O)c2ccc3nc(-c4ccco4)c(-c4ccco4)nc3c2)CC1`, the IC50 was > 79 µM (inactive). On the same count and under the same terms, the same measure for `CCOc1ncccc1C(=O)Nc1cccc(-c2nc3cccnc3s2)c1`: > 79 µM (inactive); for `COc1ccc(C(C(=O)NCc2ccccc2)N(Cc2ccco2)C(=O)c2snc(C(N)=O)c2N)cc1` (stereo not drawn): 44.1 µM (inactive). Same read-out and setting: the figure for `O=C(Nc1ccccc1)c1nc[nH]c1C(=O)NCCNC(=O)c1[nH]cnc1C(=O)Nc1ccccc1` is > 79 µM (inactive); for `COc1ccc(NC(=O)c2cc(-c3ccccn3)nc3ccccc23)cc1S(=O)(=O)N(C)C` it is > 79 µM (inactive). `COc1cc(-c2cc(NC(C)=O)c3ncc(-c4ccc(F)cc4)n3c2)cc(OC)c1OC`: the IC50 was > 79 µM (inactive).

Take `COc1ccc(COc2cc(-c3cccc(OC)c3)nc3ccc(NC(=O)c4cccnc4)cc23)cc1`: the negative-log IC50 (pIC50) was 5.34. For `COc1cc(OC)cc(C(=O)Nc2ccc(C(=O)Nc3ccccc3OC)cc2)c1`, the IC50 is > 79 µM (inactive). Still for that read-out and setting: the figure for `COc1ccc(Nc2nnc(SCc3cc(=O)n4ccsc4n3)s2)cc1` is > 79 µM (inactive). Regarding `O=C(Nc1cc(S(=O)(=O)N2CCOCC2)ccc1N1CCCCC1)c1cc(-c2ccccn2)nc2ccccc12`, the pIC50 was 5.44. `Cc1ccc(-c2csc(N3CCC[C@@H]3C(=O)NCCn3c(-c4ccncc4)nc4ccccc43)n2)cc1`: the IC50 is > 79 µM (inactive). On the same count and under the same terms, the figure for `CCOC(=O)C1CCN(c2cc3c(cc2NC(=O)c2ccccc2)n(C)c(=O)n3C)CC1` is > 79 µM (inactive). For `COc1cc(-c2cc(C(=O)OCC(=O)NC3CC3)c3ccccc3n2)cc(OC)c1OC`, the pIC50 is 4.90.

As to `CCOC(=O)C1CCN(c2cc3c(cc2NC(=O)c2ccccc2Cl)n(C)c(=O)n3C)CC1`, the IC50 was > 79 µM (inactive). On the same count and under the same terms, the figure for `COc1ccc(-c2cc(-c3nnc(COC(=O)c4ccncc4)o3)c3ccccc3n2)cc1OC` is > 79 µM (inactive). Still for that read-out and setting: the figure for `COc1ccc(-c2cc(-c3nnc(COC(=O)C4CC4)o3)c3ccccc3n2)cc1OC` is > 79 µM (inactive).

`COc1cc(NC(=O)c2cc3ccccc3cc2OC)ccc1NC(=O)c1cccs1`: the pIC50 was 5.37. The same measure, in the same setting: the figure for `COc1ccc(Nc2nc(C(=O)N3CCc4cc(OC)c(OC)cc4C3)cs2)cc1` is 5.07. On to `COc1cc(Nc2nc3ccccc3n3nnnc23)cc(OC)c1OC`, for which the IC50 is > 79 µM (inactive). For the compound `COCCN1Cc2cccc(C(=O)Nc3cccc(-c4nc5ccccc5[nH]4)c3)c2C1=O`, the IC50 was > 79 µM (inactive). On to `O=C(Nc1ccccc1)c1nc[nH]c1C(=O)NCCCCCCNC(=O)c1[nH]cnc1C(=O)Nc1ccccc1`, for which the pIC50 is 5.46. The same measure, in the same setting: the figure for `COc1cccc(-c2cnc3c(NC=O)cc(-c4cc(C)c(O)c(C)c4)cn23)c1` is 5.34. As to `N#C/C(=C\Nc1ccc2c(c1)OCCO2)c1nc2ccccc2[nH]1`, the IC50 was > 79 µM (inactive). Still for that read-out and setting: the same measure for `COc1cccc(Nc2nc(-c3sc(NC(=O)c4ccco4)nc3C)cs2)c1`: 26.4 µM (inactive). Same read-out and setting: the figure for `COc1cccc(CN(C)C(=O)C(Cc2ccccc2)NC(=O)c2ccccc2)c1OC` (stereo not drawn) is > 79 µM (inactive); for `Cc1nc(N2CCN(c3ccccn3)CC2)c2c(C)c(C(=O)Nc3ccc(F)cc3)sc2n1` it is > 79 µM (inactive). Still for that read-out and setting: the same measure for `COc1cccc(-c2cnc3c(NC=O)cc(-c4cccc(NC(C)=O)c4)cn23)c1`: > 79 µM (inactive); for `COc1cc(/C=N/NC(=O)NC23CC4CC(CC(C4)C2)C3)ccc1OCC(N)=O`: 48.3 µM (inactive); for `COc1ccc(-c2csc(NC(=O)c3cccc(N4C(=O)CCC4=O)c3)n2)cc1OC`: > 79 µM (inactive). Consider `C=CCn1cnc2c(c1=O)c1nc3ccccc3nc1n2/N=C/c1cc(OC)c(OC)c(OC)c1`, for which the IC50 is > 79 µM (inactive).

Turning to `CC(=O)Nc1cccc(-c2cc(NC(C)=O)c3ncc(-c4ccccc4)n3c2)c1`, the IC50 was > 79 µM (inactive). Same read-out and setting: the figure for `C[C@@H]1CN([C@@H](C)CO)C(=O)c2cc(NC(=O)Nc3ccccc3)ccc2O[C@H]1CN(C)C(=O)Nc1cccc2ccccc12` is > 79 µM (inactive).

In the case of `COc1cccc(-c2cnc3c(NC(C)=O)cc(-c4cccc(NS(C)(=O)=O)c4)cn23)c1`, the pIC50 was 5.17. With `C=CCOC(=O)C1=C[C@H](c2cn(C(C)=O)c3ccccc23)C[C@H](OCc2ccc(CO)cc2)O1`, the IC50 was > 79 µM (inactive).

For `CCn1c(O)c(/C=N/N=C/c2ccccc2)c2ccc(C3=NNC(=O)CC3)cc21`, the IC50 was > 79 µM (inactive). Regarding `COc1cc(/C=C/c2nnc3c4ccccc4ncn23)cc(OC)c1OC`, the pIC50 was 4.86. In the case of `CC(=O)c1ccc(-c2ccc(C(=O)Nc3nc(-c4ccccn4)cs3)o2)cc1`, the IC50 was > 79 µM (inactive).
